Test results: US12155103B2, “Electrochemical storage devices comprising chelated metals” (The Regents of the University of Colorado, a body corporate, priority 2019, dated 2024)
Like-named read-outs stand apart in the source and are kept apart here.

What was measured:
[1] = cited from earlier work
[2] = Stability of iron-chelate complexes at pH 9
[3] = cited from earlier work; remark: listed apart in the source
[4] = Cyclic voltammetry and kinetic analysis on glassy carbon electrode; format: physicochemical; conditions: for Diffusion Coefficient (Do) / E^0 / Heterogenous Reduction Rate Constant (k^0): glassy carbon electrode
Procedure: Cyclic voltammetry was conducted using a Gamry Interface 1000 potentiostat, an Ag/AgCl aqueous reference electrode (3 M NaCl filling solution), a Pt wire counter electrode, and a 3-mm-diameter glassy carbon electrode. Half-cell experiments were conducted on a solution containing 5 mM K[Cr(PDTA)], 5 mM K4Fe(CN)6, and 0.125 M K2B4O7 at pH 9.
For an irreversible reaction, the peak current, ip, is given by equation (1).
[formula] where ip is in amperes, A is the electrode area (cm^2), CO° is the bulk concentration of oxidant (moles cm^−3), v is the potential sweep rate (V s^−1), DO is the diffusion coefficient of the oxidant, α is the charge transfer coefficient, and na is the number of […] involved in the rate-determining step. This equation reduces, at 25° C. to equation (2). ip=2.99*10^5n(αna)^1/2ACO^0DO^1/2v^1/2 (2) ip vs. v^1/2 was plotted, giving a straight line, with the slope being proportional to DO. Assuming an αna value of ½ allowed for the solving of DO. For a totally irreversible peak, the peak potential, Ep, is a function of scan rate, the difference between Ep and the formal potential, E^0′, being related to the standard heterogeneous rate constant, k°. The peak current can be expressed as show in equation (3).
[formula] Ln(ip) vs. (Ep−E°′), at different scan rates was plotting, with the intercept being proportional to and allowing solving for k°. E°′ was found in literature to be −1.31 V vs Ag/AgCl. The bulk concentration was 0.005 M, and na was 1 as there is only 1 electron being transferred. The area of the electrode is 0.0707 cm^2 from a 3 mm diameter glassy carbon electrode. Scan rates were done at 25, 50, 100, 200, and 500 mV s^−1. The slope of ip vs. v^1/2 was 0.0747, and the intercept of ln(ip) vs. (Ep−E°′) was −13.527.
Half-cell measurements were made using cyclic voltammetry (CV), which was conducted using a Gamry Interface 1000 potentiostat, an Ag/AgCl aqueous reference electrode (3 M NaCl filling solution), a Pt wire counter electrode, and a 3-mm-diameter glassy carbon working electrode, unless otherwise noted. Solutions were first sparged with an inert gas, for example N2, helium, neon, or argon, or combinations thereof, for at least 15 minutes and then kept under a blanket of an inert gas, such as N2, helium, neon, or argon, or combinations thereof, while tests were performed. All testing was performed at ambient temperatures. For carbon paper cyclic voltammetry experiments, the same setup was used as with the glassy carbon electrode, but the working electrode was a piece of carbon paper. For all chromium complexes and Fe(CN)6 solution 5 mM solutions were utilized for all CV experiments except those utilizing carbon paper electrodes which utilized 50 mM solutions. Other metal chelate complexes have concentrations that are specified in the figure captions.
Cyclic voltammetry (CV) was performed to compare the electrochemical behavior of FeDTPA and CrPDTA with their respective unchelated metal ions. […] Compared to their non-chelated counterparts, a greater electrochemical reversibility is observed in the chelated over the non-chelated metals (FIG. 32).

[5] = cited from earlier work; for reduction potential E^0: literature or previously reported values
[6] = Maximum solubility at room temperature (saturated or concentrated solution, UV-Vis at 506 nm; bulk electrolysis for K2FeDTPA); format: physicochemical
Procedure: A saturated solution of KCrPDTA was prepared by dissolving KCrPDTA crystals in minimal DI water at room temperature such that crystals remain undissolved. The solution was agitated for 1 day. […] For the Na^+ cation with CrEDTA, the solubility was determined from a concentrated impure solution containing 3:1 NaCl. […] For the K2 with Fe-DTPA, the solubility was determined from a concentrated impure solution containing 3:1 KCl.

| Compound | Binding Constant (Fe^+2) [1] | Binding Constant (Fe^+3) [1] | Stability at pH 9 [2] | E^0 [4] [V vs Ag/AgCl] | Heterogenous Reduction Rate Constant (k^0) [4] [×10⁻⁶ cm/s] | also measured |
| --- | --- | --- | --- | --- | --- | --- |
| O=C([O-])CN(CCN(CC(=O)[O-])CC(=O)[O-])CC(=O)[O-].[Fe+3].[Na+] [FeEDTA] | 14.33 | 25.10 | Dimerizes |  |  |  |
| O=C([O-])CN(CCO)CCN(CC(=O)[O-])CC(=O)[O-].[Fe+3] [FeHEDTA] | 12.2 | 19.7 | Dimerizes |  |  |  |
| Mn EDTA |  |  |  |  |  | RFB Electrolyte solubility ([3]; pH 3): 400 mM; RFB Electrolyte solubility ([3]; pH 4.5): 400 mM; RFB Electrolyte solubility ([3]; pH 6): 400 mM; RFB Electrolyte solubility ([3]; pH 6.6): 400 mM; RFB Electrolyte solubility ([3]; pH 8.0): 400 mM |
| O=C(O)CN(CCN(CC(=O)O)CC(=O)O)CCN(CC(=O)O)CC(=O)O [DTPA, diethylenetriaminepentaacetic acid] | 16.55 | 28.60 |  |  |  |  |
| [Cl][Fe]([Cl])[Cl] [FeCl3] |  |  |  | 0.55 | 3.4 | Diffusion Coefficient (Do) [4]: 7.55 10^−6 cm^2 s^−1; heterogeneous reduction rate constant k^0 ([4]; glassy carbon, 3 M HCl): 3.4e-06 cm/s; reduction potential E^0 [5]: 0.55 V vs. Ag/AgCl |
| O=C([O-])CN(CCN(CC(=O)[O-])CC(=O)[O-])CCN(CC(=O)[O-])CC(=O)[O-].[Fe+3].[K+].[K+] [FeDTPA K2] |  |  |  | −0.15 | 15.5 | maximum solubility / highest concentration cycled ([6]; pH 9, 20° C., limited by viscosity): 1350 mM; Max Solubility at RT ([6]; room temperature): 1350 mM; Diffusion Coefficient (Do) [4]: 2.41 10^−6 cm^2 s^−1 |
| O=C(O)CN(CCN(CC(=O)O)CC(=O)O)CC(=O)O.[Cr] [CrEDTA] |  |  |  |  |  | Cr^3+/2+ reduction potential ([5]; near neutral pH): −0.99 V vs. SHE |
| [Cl][Cr]([Cl])[Cl] [CrCl3] |  |  |  | −0.64 | 10 |  |
| [Fe+2].c1ccc(-c2ccccn2)nc1.c1ccc(-c2ccccn2)nc1.c1ccc(-c2ccccn2)nc1 [Fe(bpy)3] | 4.2 | 16.29 | Insoluble |  |  | reduction potential E^0 [5]: +0.903 V vs. Ag/AgCl |
